Reference: US20040106148A1, “Polypeptides” (priority 2000, published 2004)
pKd: −log10 of the molar value. Values joined by “and” are separate entries in the source; they are usually repeats but may differ in a detail not shown here. Equal values may be shown once.

Tests used:
[1] = target: T1, mouse TAPP2, full length (FL-TAPP2, accession AF286161), wild type, GST fusion (Mus musculus, UniProt Q9ERS5); test: Surface plasmon resonance (BIACore), GST fusion binding to phosphoinositide in supported lipid monolayer; conditions: supported phosphatidylcholine monolayers, 1:1 binding model, NB, no binding detected, read-out: Apparent Kd
T1 construct: made in house; host or cells: human embryonic kidney 293 cells (pEBG-2T)
Description: (§1) Expression of GST-PH domains in human embryonic kidney 293 cells. […] For the expression of each construct, twenty 10 cm diameter dishes of 293 cells were cultured and each dish transfected with 5 μg of the pEBG-2T construct, using a modified calcium phosphate method. 36 h post-transfection, the cells were lysed in 1 ml of ice-cold Buffer A, the lysates pooled, centrifuged at 4° C. for 10 min at 13,000×g and the GST-fusion proteins were purified by affinity chromatography on glutathione-Sepharose and stored as described above.
(§2) Cloning TAPP1, TAPP2, FAPP1 and PEPP1. Full length human TAPP1, full length mouse TAPP2, partial mouse TAPP1, partial human TAPP2, and full length human and mouse FAPP1 sequences were deduced by sequencing the EST clones listed in Table 3. […] The constructs used to express full length and deletion mutants of TAPP1 and TAPP2 were generated by PCR, using as a template ESTs encoding full length human TAPP1 (accession number AI216176) and full length mouse TAPP2 (accession number AA111410). […]
(§3) Kinetic analyses of the interactions between the GST PH domain fusions and the polyphosphoinositides were made using surface plasmon resonance based procedures as described previously, with the following modifications. […] Data were analysed using the bimolecular interaction model and the global fitting feature of the BIAevaluation 3 software for several sensorgrams at different protein concentrations. […] The relative binding affinities of each protein relative to the binding of full length GST-TAPP1 to PtdIns(3,4)P2 were also calculated.
(§4) We studied the specificity and affinity of interaction of the PH domains for phosphoinositide lipids using either a “protein-lipid overlay” assay (FIG. 2) or the more quantitative surface plasmon resonance based approach (Table 2). […] For the surface plasmon resonance based assay, the apparent Kd values of the GST PH domain fusion proteins resulting from their interaction with a supported lipid monolayer containing a low mole fraction of phosphoinositide, was determined (Table 2).

[2] = target: T2, human TAPP1, full length, mutant R28L (FL-TAPP1 [R28L]), GST fusion (Homo sapiens, UniProt Q9HB21, R28L/T320A); test: as above; conditions: supported phosphatidylcholine monolayers, 1:1 binding model, read-out: Apparent Kd
T2 construct: wild type and mutant forms of full length (FL); made in house; host or cells: human embryonic kidney 293 cells (pEBG-2T)
Description: as §1, §2, §3, §4

[3] = target: T3, human TAPP1, full length (FL-TAPP1, accession AF286160), wild type, GST fusion (Homo sapiens, UniProt Q9HB21, T320A); test: as above; conditions: supported phosphatidylcholine monolayers, 1:1 binding model, NB, no binding detected, read-out: Apparent Kd
T3 construct: made in house; host or cells: human embryonic kidney 293 cells (pEBG-2T)
Description: as §1, §2, §3, §4

[4] = target: human TAPP1 C-terminal PH domain (residues 95 to 404), GST fusion (Homo sapiens, UniProt Q9HB21); test: Protein-lipid overlay; assay type: binding; conditions: protein-lipid overlay (FIG. 2)
Description: FIG. 2. Phosphoinositide binding properties of the novel PH domains. The ability of the indicated GST fusion proteins to bind a variety of phosphoinositides was analysed using a protein-lipid overlay. Serial dilutions of the indicated phosphoinositides (100 pmol, 50 pmol, 25 pmol, 12.5 pmol, 6.3 pmol, 3.1 pmol and 1.6 pmol) were spotted onto a nitrocellulose membranes which were then incubated with the purified GST fusion proteins. The membranes were washed and the GST-fusion proteins bound to the membrane by virtue of their interaction with lipid were detected using a GST antibody. A representative of at least 3 separate experiments carried out is shown.
FIG. 4. Comparison of the phosphoinositide binding properties of the N-terminal and C-terminal PH domains of TAPP1 and TAPP2. The ability of wild type and mutant forms of full length (FL) and isolated N-terminal (NT) and C-terminal (CT) PH domains of TAPP1 and TAPP2 GST-fusion proteins to interact with phosphoinositides were analysed using a protein-lipid overlay. Serial dilutions of the indicated phosphoinositides (100 pmol, 50 pmol, 25 pmol, 12.5 pmol, 6.3 pmol, 3.1 pmol and 1.6 pmol) were spotted onto a nitrocellulose membrane which was then incubated with the indicated purified GST fusion proteins. The membranes were washed and the GST-fusion proteins bound to the membrane by virtue of their interactions with lipid were detected using a GST antibody. A representative experiment of three is shown. The isolated N-terminal PH domain of human TAPP1 comprises residues 1 to 147, the isolated C-terminal PH domain of human TAPP1 comprises residues 95 to 404, the isolated N-terminal PH domain of mouse TAPP2 comprises residues 1 to 131 and the isolated C-terminal PH of mouse TAPP2 comprises residues 174 to 425.
Protein-Lipid overlay. To assess the phosphoinositide binding properties of each PH domain, a protein-lipid overlay assay was performed using the GST fusion proteins as described previously. […] The membrane was blocked in 3% (by mass) fatty acid-free BSA in TBST (50 mM Tris/HCl pH 7.5, 150 mM NaCl and 0.1% Tween-20 (by vol) for lh. The membrane was then incubated overnight at 4° C. with gentle agitation in the same solution containing 0.2 μg/ml of the indicated GST fusion protein. The membranes were washed 6 times over 30 min in TBST and then incubated for 1 h with 1/1000 dilution of anti-GST monoclonal antibody (Sigma). The membranes were washed as before, then incubated for 1 h with 1/5000 dilution of anti-mouse-HRP conjugate (Pierce). Finally, the membranes were washed 12 times over 1 h in TBST and the GST-fusion protein bound to the membrane by virtue of its interaction with phospholipid was detected by enhanced chemiluminescence.

T3 sequence (Q9HB21 whole entry T320A, the tested form may be a part): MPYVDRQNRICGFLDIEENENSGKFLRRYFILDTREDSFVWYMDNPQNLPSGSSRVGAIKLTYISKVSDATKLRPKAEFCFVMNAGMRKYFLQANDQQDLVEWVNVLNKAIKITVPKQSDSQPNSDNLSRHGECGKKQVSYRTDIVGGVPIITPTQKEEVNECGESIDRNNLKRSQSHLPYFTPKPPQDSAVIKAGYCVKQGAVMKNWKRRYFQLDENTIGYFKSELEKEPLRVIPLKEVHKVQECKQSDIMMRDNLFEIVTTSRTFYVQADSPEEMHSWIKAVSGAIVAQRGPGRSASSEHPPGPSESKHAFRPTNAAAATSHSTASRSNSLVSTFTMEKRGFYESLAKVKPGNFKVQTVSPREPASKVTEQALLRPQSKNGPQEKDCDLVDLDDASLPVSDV
human TAPP1 C-terminal PH domain (residues 95 to 404), GST fusion, sequence (Q9HB21 95-404): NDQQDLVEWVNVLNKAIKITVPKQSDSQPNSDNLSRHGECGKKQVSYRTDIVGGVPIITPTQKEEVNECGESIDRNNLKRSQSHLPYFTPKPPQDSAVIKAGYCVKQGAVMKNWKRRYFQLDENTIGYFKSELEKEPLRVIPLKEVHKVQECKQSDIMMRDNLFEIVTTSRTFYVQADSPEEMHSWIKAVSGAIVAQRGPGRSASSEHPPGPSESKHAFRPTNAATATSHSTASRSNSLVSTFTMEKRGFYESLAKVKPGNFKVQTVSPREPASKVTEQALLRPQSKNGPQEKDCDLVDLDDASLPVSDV
T2 sequence (Q9HB21 whole entry R28L/T320A, the tested form may be a part): as the sequence (Q9HB21 whole entry T320A, the tested form may be a part) above, with R28L counted along it
T1 sequence (Q9ERS5 whole entry, the tested form may be a part): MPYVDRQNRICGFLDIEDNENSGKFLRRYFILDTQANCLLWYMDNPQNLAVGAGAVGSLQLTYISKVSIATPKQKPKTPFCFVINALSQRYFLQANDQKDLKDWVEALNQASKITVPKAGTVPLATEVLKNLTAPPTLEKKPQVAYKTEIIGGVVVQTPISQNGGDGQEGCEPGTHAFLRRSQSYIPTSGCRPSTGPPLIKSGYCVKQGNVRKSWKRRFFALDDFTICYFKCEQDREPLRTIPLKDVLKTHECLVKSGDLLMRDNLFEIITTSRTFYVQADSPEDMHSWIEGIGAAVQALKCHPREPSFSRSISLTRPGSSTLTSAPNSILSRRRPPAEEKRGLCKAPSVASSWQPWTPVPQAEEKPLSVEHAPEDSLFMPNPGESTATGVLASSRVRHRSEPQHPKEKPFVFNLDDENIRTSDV

pKd [1]: 7.52
pKd [2]: 7.55
pKd [3]: 8.30 and ~8.30
phosphoinositide binding [4]: interacted
SMILES: CCCCCCCCCCCCCCCC(=O)OC[C@H](COP(=O)(O)O[C@H]1[C@H](O)[C@@H](O)[C@H](OP(=O)(O)O)[C@@H](OP(=O)(O)O)[C@H]1O)OC(=O)CCCCCCCCCCCCCCC [PtdIns(3,4)P2]
